Measurements: ChEMBL document CHEMBL5034037, “Synthesis, Characterization, and Preclinical Evaluation of a Small-Molecule Prostate-Specific Membrane Antigen-Targeted Monomethyl Auristatin E Conjugate” (J Med Chem, 2021)
The source made the active and inactive calls. The calls are words filed in the database; no cut-off is given here. Where a SMILES comes first, the peptide text is derived from it. [ ]: non-standard residue; d: D form. The star is where a group is joined. Dolaproine = CO[C@@H]([C@@H]1CCCN1)[C@@H](C)C(=O)O; Dil = CC[C@H](C)[C@H](NC)[C@@H](CC(=O)O)OC; X2 = C[C@@H](N*)[C@@H](O)c1ccccc1; NMeV = CN[C@H](C(=O)O)C(C)C

Legend:
PC-3 [1] = test: Cytotoxicity against human PC-3 cells not expressing PMSA measured using MTT assay; type: functional
[2] = Acute toxicity in Wistar rat assessed as decrease in motor activity; details: in vivo
PC-3 [3] = test: Induction of intracellular reactive oxygen species production in human PC-3 cells incubated for 1 hr measured at CC50 concentration by amperometric method; type: functional, cell-based
CWR22R [4] = test: Induction of intracellular reactive oxygen species production in human 22Rv1 cells incubated for 1 hr measured at CC50 concentration by amperometric method; type: functional, cell-based
[5] = Acute toxicity in Wistar rat assessed as decrease in porphyrin release from nose mucous membrane at 30 mg/kg, iv; type: organism-based; details: in vivo
[6] = Acute toxicity in Wistar rat assessed as damage in liver at 30 mg/kg, iv; type: organism-based; details: in vivo
[7] = Acute toxicity in iv dosed ICR male mouse assessed as maximum non-lethal dose; type: organism-based; details: in vivo
[8] = Acute toxicity in Wistar rat assessed as decrease in porphyrin release from eye mucous membrane at 30 mg/kg, iv; type: organism-based; details: in vivo
CWR22R [9] = test: Cytotoxicity against human 22Rv1 cells expressing PMSA measured using MTT assay; type: functional
[10] = Acute toxicity in iv dosed Wistar male rat assessed as maximum non-lethal dose; type: organism-based; details: in vivo

| SMILES | CC50 (PC-3 [1]) [nM] | Activity [2] | Activity (PC-3 [3]) | Activity (CWR22R [4]) | Activity [5] | Activity [6] | Activity [7] [mg/kg] | Activity [8] | CC50 (CWR22R [9]) [nM] | Activity [10] [mg/kg] |
| --- | --- | --- | --- | --- | --- | --- | --- | --- | --- | --- |
| CC[C@H](C)[C@@H]([C@@H](CC(=O)N1CCC[C@H]1[C@H](OC)[C@@H](C)C(=O)N[C@H](C)[C@@H](O)c1ccccc1)OC)N(C)C(=O)[C@@H](NC(=O)[C@@H](NC)C(C)C)C(C)C (H-[NMeV]V[Dil][Dolaproine]-X2) | 0.97 | Toxic | Active | Active | Toxic | Toxic | 0.1 | Toxic | 1.44 | 0.29 |
| CC(=O)O[C@@]12CO[C@@H]1C[C@H](O)[C@@]1(C)C(=O)[C@H](O)C3=C(C)[C@@H](OC(=O)[C@H](O)[C@@H](NC(=O)OC(C)(C)C)c4ccccc4)C[C@@](O)([C@@H](OC(=O)c4ccccc4)[C@H]21)C3(C)C [DOCETAXEL ANHYDROUS] | 6.7 | – | – | – | – | – | – | – | 3.3 | – |
